Test results: article PMC5896574 (ChemMedChem, 2017)
Where two headings read alike, the source gives them in different places.

Tests used:
[1] = tested on: HIV-1LAI; assay: Antiviral assay using MT-2 cells exposed to HIV-1LAI; type: cell-based
[2] = tested on: HIV-2ROD; assay: Antiviral activity of 3b against HIV-2ROD; type: cell-based; settings: read-out: Antiviral activity (EC50)
[3] = tested on: HIVAO2; assay: Antiviral activity of 3b against HIVAO2; type: cell-based, HIV
[4] = tested on: HIVDRV^RP20; assay: Antiviral activity of 3b against HIVDRV^RP20; type: cell-based, HIV; settings: read-out: Antiviral activity (EC50)
[5] = tested on: HIV-1DRV^RP30; assay: microbe, parasite or virus in culture; type: cell-based; settings: for fold change of IC50: HIV-1DRV^RP30 relative to HIV-1NL4-3
[6] = target: HIV-1 protease (Human immunodeficiency virus type 1 group M subtype B, UniProt P04585); assay: HIV-1 protease inhibitory assay; type: biochemical
[7] = tested on: HIV-1DRV^RP20; assay: microbe, parasite or virus in culture; type: cell-based; settings: for fold change of IC50: HIV-1DRV^RP20 relative to HIV-1NL4-3
[8] = tested on: HIV-1DRV^RP40; assay: microbe, parasite or virus in culture; type: cell-based; settings: for fold change of IC50: HIV-1DRV^RP40 relative to HIV-1NL4-3
[9] = tested on: HIV-1NL4-3; assay: Antiviral p24 assay, MT-4 cells exposed to wild-type HIV-1NL4-3; type: cell-based
[10] = read-out: antiviral IC50, MT-2 cells exposed to HIV-1LAI, mean of at least three experiments
[11] = Human immunodeficiency virus 1, MT4
[12] = Human immunodeficiency virus 1, MT2, read-out: antiviral IC50

CC(C)CN(C[C@@H](O)[C@H](Cc1ccccc1)NC(=O)O[C@H]1CO[C@H]2OCC[C@H]21)S(=O)(=O)c1ccc(C(=O)O)cc1 [3a, 4-(N-((2R,3S)-3-(((((3R,3aS,6aR)-Hexahydrofuro[2,3-b]furan-3-yl)oxy)carbonyl)amino)-2-hydroxy-4-phenylbutyl)-N-isobutylsul-famoyl)benzoic acid]
IC50 ([1]; read-out: antiviral IC50, MT-2 cells exposed to HIV-1LAI): > 1000 nM

CC(C)CN(C[C@@H](O)[C@H](Cc1ccccc1)NC(=O)O[C@H]1CO[C@H]2OCC[C@H]21)S(=O)(=O)c1ccc(C(N)=O)cc1 [3b, (3R,3aS,6aR)-Hexahydrofuro[2,3-b]furan-3-yl ((2S,3R)-4-((4-carba-moyl-N-isobutylphenyl)sulfonamido)-3-hydroxy-1-phenylbutan-2-yl)carbamate]
IC50 [1, 10]: 45 nM | EC50 [2]: 30 nM | EC50 [3]: 29 nM | EC50 [4]: 97 nM

CC(C)CN(C[C@@H](O)[C@H](Cc1ccccc1)NC(=O)O[C@H]1CO[C@H]2OCC[C@H]21)S(=O)(=O)c1ccc([C@@H](C)O)cc1 [3e, (3R,3aS,6aR)-Hexahydrofuro[2,3-b]furan-3-yl ((2S,3R)-3-hydroxy-4-((4-((R)-1-hydroxyethyl)-N-isobutylphenyl)sulfonamido)-1-phe-nylbutan-2-yl)carbamate]
IC50 [1, 10]: 4 nM

COC(=O)c1coc(-c2ccc(S(=O)(=O)N(CC(C)C)C[C@@H](O)[C@H](Cc3ccccc3)NC(=O)O[C@H]3CO[C@H]4OCC[C@H]43)cc2)n1 [3g, Methyl 2-(4-(N-((2R,3S)-3-(((((3R,3aS,6aR)-hexahydrofuro[2,3-b]furan-3-yl)oxy)carbonyl)amino)-2-hydroxy-4-phenylbutyl)-N-isobutylsulfamoyl)phenyl)oxazole-4-carboxylate]
fold change of IC50 [5]: 20 | IC50 [5, 11]: 430 nM | IC50 [1, 12]: 6.2 nM | Ki [6]: 0.0279 nM | fold change of IC50 [7]: 15 | IC50 [7, 11]: 320 nM | fold change of IC50 [8]: > 46 | IC50 [8, 11]: > 1000 nM | IC50 [9, 11]: 22 nM

CC(C)CN(C[C@@H](O)[C@H](Cc1ccccc1)NC(=O)O[C@H]1CO[C@H]2OCC[C@H]21)S(=O)(=O)c1ccc(-c2nc(CO)co2)cc1 [3h, (3R,3aS,6aR)-Hexahydrofuro[2,3-b]furan-3-yl ((2S,3R)-3-hydroxy-4-((4-(4-(hydroxymethyl)oxazol-2-yl)-N-isobutylphenyl)sulfona-mido)-1-phenylbutan-2-yl)carbamate]
fold change of IC50 [5]: 99 | IC50 ([5]; MT-4 cells, 50 TCID50 HIV-1DRV^RP30, p24 assay): 290 nM | IC50 [1, 10]: 3.9 nM | fold change of IC50 [7]: 88 | IC50 ([7]; MT-4 cells, 50 TCID50 HIV-1DRV^RP20, p24 assay): 260 nM | fold change of IC50 [8]: > 337 | IC50 ([8]; MT-4 cells, 50 TCID50 HIV-1DRV^RP40, p24 assay): > 1000 nM | IC50 ([9]; MT-4 cells, 50 TCID50 HIV-1NL4-3, p24 assay): 3 nM

CC(C)CN(CC(O)C(Cc1ccccc1)NC(=O)OC1COC2OCCC12)S(=O)(=O)c1ccc(-c2cnco2)cc1 [3i, (3R,3aS,6aR)-Hexahydrofuro[2,3-b]furan-3-yl ((2S,3R)-3-hydroxy-4-((N-isobutyl-4-(oxazol-5-yl)phenyl)sulfonamido)-1-phenylbu-tan-2-yl)carbamate]
IC50 [1, 10]: 2.8 nM

CC(C)CN(C[C@@H](O)[C@H](Cc1ccccc1)NC(=O)O[C@H]1CO[C@H]2OCC[C@H]21)S(=O)(=O)c1ccc(N)cc1 [DRV, darunavir, reference compound]
IC50 [1, 12]: 1.6 nM | IC50 [7, 11]: 43 nM | IC50 [8, 11]: > 1000 nM | IC50 [9, 11]: 3.4 nM
